Experimental data: patent publication US8932646B2, “Peroxide contact lens care solution” (Bausch & Lomb Incorporated, priority 2010, dated 2015)

Assays:
[1] = Peroxide neutralization rate profile in Clear Care® lens case with platinum element; type: physicochemical
Text: All of the peroxide neutralization data described herein was obtained with a hydrogen peroxide lens case provided in a contact lens care product package sold as Clear Care® by CibaVision. The Clear Care® product packages with the included lens case were purchased in the United States in 2009-10. Each of the hydrogen peroxide neutralization profiles and rate constants (as well as calculated the half-lives) stated herein and in the claims were obtained with a Clear Care® lens case.
The line plots shown in FIG. 5B is determined from the peroxide neutralization data of FIG. 5A over the initial 60 minutes, i.e. at time of 0, 5 min, 15 min, 30 min and 60 min. […] The pseudo first-order rate constant is determined from the slope of the line plots.
The peroxide neutralization rate profiles of select disinfecting solutions were determined as follows. […] Aliquots of the solution are removed at the stated time points and the concentration of hydrogen peroxide is determined by known analytical methods.
The aliquots of solution are titrated with 0.1N potassium permanganate in the presence of an acidic aqueous solution. […] The sample is placed in the system and analyzed using a built-in hydrogen peroxide determination method. […] Once an endpoint is determined the instrument calculates the hydrogen peroxide concentration of the sample. […]

[2] = Osmolality after peroxide neutralization; type: physicochemical; details: disinfecting solution with 3 wt. % urea hydrogen peroxide

In the case of `NCCS(=O)(=O)O` [taurine], the “effect on the rate of peroxide neutralization” value ([1]; 0.1 wt. % or 1000 ppm) is reported as “much greater reduction in the rate of peroxide neutralization” and the “effect on the rate of peroxide neutralization” value ([1]; 100 ppm) is reported as “very small effect on the rate of peroxide neutralization”.
For `NC(N)=O.OO` [urea hydrogen peroxide], the “osmolality of the solution following neutralization of the peroxide” value [2] was “about 600 mOsmol/kg”.
